Reference: PubChem BioAssay (NCI)
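The concentration for 50% growth inhibition is given as GI50. TGI denotes the concentration required for complete inhibition of growth.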

Columns and labels:
Test in all cases: NCI-60 cell line screen, 384-well format
[1] = system: RXF 393 renal
[2] = system: DU-145 prostate
[3] = system: CAKI-1 renal
[4] = system: 786-0 renal
[5] = system: MDA-MB-435 melanoma
[6] = system: SF-268 CNS
[7] = system: NCI-H23 lung
[8] = system: UACC-257 melanoma
[9] = system: SK-MEL-5 melanoma
[10] = system: OVCAR-4 ovarian
[11] = system: SNB-75 CNS
[12] = system: NCI-H522 lung
[13] = system: A549 NSCLC
[14] = system: RPMI-8226 leukemia
[15] = system: M14 melanoma
[16] = system: HS 578T breast
[17] = system: IGROV1 ovarian
[18] = system: HCT-15 colon
[19] = system: OVCAR-5 ovarian
[20] = system: MALME-3M melanoma
[21] = system: SF-539 CNS
[22] = system: ACHN renal
[23] = system: NCI-H460 NSCLC
[24] = system: TK-10 renal
[25] = system: HOP-62 NSCLC
[26] = system: SK-OV-3 ovarian
[27] = system: MDA-MB-231 breast
[28] = system: HT29 colon
[29] = system: HL-60(TB) leukemia
[30] = system: OVCAR-8 ovarian
[31] = system: K-562 leukemia
[32] = system: SNB-19 CNS
[33] = system: OVCAR-3 ovarian
[34] = system: HCC-2998 colon
[35] = system: NCI-H322M lung
[36] = system: CCRF-CEM leukemia
[37] = system: T-47D breast
[38] = system: COLO 205 colon
[39] = system: U251 glioblastoma
[40] = system: PC-3 prostate
[41] = system: EKVX NSCLC
[42] = system: NCI-H226 lung
[43] = system: SW-620 colon
[44] = system: NCI/ADR-RES ovarian
[45] = system: MDA-MB-468 breast
[46] = system: A498 renal
[47] = system: MOLT-4 leukemia
[48] = system: SF-295 CNS
[49] = system: UO-31 renal
[50] = system: HOP-92 NSCLC
[51] = system: LOX IMVI melanoma
[52] = system: SN12C renal
[53] = system: HCT-116 colon
[54] = system: BT-549 breast
[55] = system: SK-MEL-28 melanoma
[56] = system: KM12 colon
[57] = system: MCF7 breast
[58] = system: UACC-62 melanoma

COc1ccc(-c2nc(N3CCOCC3)c3sc(CN(C)c4ncc(C(=O)NO)cn4)cc3n2)cn1
GI50 [1]: < 10 nM
TGI [1]: < 10 nM
GI50 [2]: < 10 nM
TGI [2]: < 10 nM
GI50 [3]: < 10 nM
TGI [3]: < 10 nM
GI50 [4]: < 10 nM
TGI [4]: 28.4 nM
GI50 [5]: < 10 nM
TGI [5]: 10.1 nM
GI50 [6]: < 10 nM
TGI [6]: < 10 nM
GI50 [7]: < 10 nM
TGI [7]: < 10 nM
GI50 [8]: < 10 nM
TGI [8]: < 10 nM
GI50 [9]: < 10 nM
TGI [9]: < 10 nM
GI50 [10]: 13.9 nM
TGI [10]: 40.7 nM
GI50 [11]: < 10 nM
TGI [11]: 22.6 nM
GI50 [12]: < 10 nM
TGI [12]: < 10 nM
GI50 [13]: < 10 nM
TGI [13]: < 10 nM
GI50 [14]: < 10 nM
TGI [14]: < 10 nM
GI50 [15]: < 10 nM
TGI [15]: < 10 nM
GI50 [16]: < 10 nM
TGI [16]: 16 nM
GI50 [17]: < 10 nM
TGI [17]: 10.6 nM
GI50 [18]: < 10 nM
TGI [18]: 23.2 nM
GI50 [19]: < 10 nM
TGI [19]: 16.9 nM
GI50 [20]: < 10 nM
TGI [20]: < 10 nM
GI50 [21]: < 10 nM
TGI [21]: 13.6 nM
GI50 [22]: < 10 nM
TGI [22]: 13.3 nM
GI50 [23]: < 10 nM
TGI [23]: 11.7 nM
GI50 [24]: 11.6 nM
TGI [24]: 28.7 nM
GI50 [25]: < 10 nM
TGI [25]: 17.4 nM
GI50 [26]: < 10 nM
TGI [26]: < 10 nM
GI50 [27]: < 10 nM
TGI [27]: < 10 nM
GI50 [28]: < 10 nM
TGI [28]: 12.5 nM
GI50 [29]: < 10 nM
TGI [29]: < 10 nM
GI50 [30]: < 10 nM
TGI [30]: 10.1 nM
GI50 [31]: < 10 nM
TGI [31]: < 10 nM
GI50 [32]: < 10 nM
TGI [32]: 18.7 nM
GI50 [33]: < 10 nM
TGI [33]: < 10 nM
GI50 [34]: < 10 nM
TGI [34]: < 10 nM
GI50 [35]: < 10 nM
TGI [35]: 19.1 nM
GI50 [36]: < 10 nM
TGI [36]: < 10 nM
GI50 [37]: < 10 nM
TGI [37]: < 10 nM
GI50 [38]: < 10 nM
TGI [38]: 11 nM
GI50 [39]: < 10 nM
TGI [39]: < 10 nM
GI50 [40]: < 10 nM
TGI [40]: 10.7 nM
GI50 [41]: 14 nM
TGI [41]: 76.5 nM
GI50 [42]: < 10 nM
TGI [42]: 33 nM
GI50 [43]: < 10 nM
TGI [43]: < 10 nM
GI50 [44]: < 10 nM
TGI [44]: 12.5 nM
GI50 [45]: < 10 nM
TGI [45]: < 10 nM
GI50 [46]: < 10 nM
TGI [46]: 12.3 nM
GI50 [47]: < 10 nM
TGI [47]: < 10 nM
GI50 [48]: < 10 nM
TGI [48]: 18.9 nM
GI50 [49]: < 10 nM
TGI [49]: 26.9 nM
GI50 [50]: < 10 nM
TGI [50]: 23.6 nM
GI50 [51]: < 10 nM
TGI [51]: < 10 nM
GI50 [52]: < 10 nM
TGI [52]: 16.3 nM
GI50 [53]: < 10 nM
TGI [53]: < 10 nM
GI50 [54]: < 10 nM
TGI [54]: 13.6 nM
GI50 [55]: < 10 nM
TGI [55]: 17.9 nM
GI50 [56]: < 10 nM
TGI [56]: 15.1 nM
GI50 [57]: < 10 nM
TGI [57]: < 10 nM
GI50 [58]: < 10 nM
TGI [58]: < 10 nM
